Measured values reported in PubChem BioAssay AID489006 (Sanford-Burnham Center for Chemical Genomics, 2010).
pIC50: −log10 of the molar value. Active and inactive are the calls of the source. The rule behind the calls is not given here.

The molecules below were run on Jurkat NF-kB reporter, luminescence (assay: Jurkat NF-kB signaling inhibitors – cell-based, luminescence, selectivity assay for B-cell receptor NF-kB inhibitor project, dose response (AID 489006)).
In the case of C=CCOc1ccc(NC(=O)C(=O)NCCCn2ccnc2)cc1, the IC50 was > 80 µM (inactive).
O=C(CCCN1C(=O)S/C(=C\C=C\c2ccccc2)C1=O)Nc1ccc(O)cc1 was tested, and the IC50 was > 80 µM (inactive).
In the case of O=C(Nc1nc2nc(-c3ccccc3)cc(-c3ccccc3)n2n1)c1ccco1, the pIC50 was 4.92.
For CCN(CC(=O)Nc1c(F)cccc1F)C(=O)C1(c2ccccc2)CC1, the IC50 was > 80 µM (inactive).
Cn1nnnc1Sc1ncnc2scc(Br)c12 gave a pIC50 of 5.95.
COc1ccc(C(=O)n2nc(-c3ccc(Cl)cc3)nc2N)cc1OC was tested, and the pIC50 was 5.54.
In the case of O=C(NNC(=O)C12CC3CC(CC(C3)C1)C2)c1cccc(O)c1, the IC50 was > 80 µM (inactive).
Cc1c(NC(=O)/C=C/c2cn(-c3ccccc3)nc2-c2ccccc2)c(=O)n(-c2ccccc2)n1C was tested, and the IC50 was > 80 µM (inactive).
With CCOc1ccc(/C=C2\SC(=S)N(CCCC(=O)NCCCN3CCOCC3)C2=O)cc1 the pIC50 was 6.28.
CC(C)CN(C(=O)COC(=O)C12CC3CC(CC(C3)C1)C2)c1c(N)n(Cc2ccccc2)c(=O)[nH]c1=O showed a pIC50 of 4.87.
CSc1ccc(-c2nc(CSCC(=O)NC3CC3)c(C)o2)cc1 was tested, and the IC50 was > 80 µM (inactive).
Molecule Cc1c(CCC(=O)N2CCC(C(=O)O)(c3ccccc3)CC2)c(=O)oc2cc3oc4c(c3cc12)CCCC4 has a pIC50 of 5.31.
O=C(O)COc1ccc(-c2nccc(-c3ccccn3)n2)cc1 showed a pIC50 of 6.66.
With Cc1ccc(C(=O)N2CCCC(c3ccc(Cl)cc3)=N2)cc1 the IC50 was > 80 µM (inactive).
With CCOCCCNc1nc2c(C)cccn2c(=O)c1/C=C1\SC(=S)N(C(C)CC)C1=O (centres undefined) the IC50 was > 80 µM (inactive).
Molecule CC(C)(C)C(=O)/C(=C/c1ccncc1)n1cncn1 has a pIC50 of 5.54.
Work on O=S(=O)(c1cnc(Cl)c(Cl)c1)N1CCCc2ccccc21 yielded a pIC50 of 4.73.
In the case of CCOc1ccc(-n2c(SCC(=O)Nc3ccc4c(c3)OCCO4)nc3c(c2=O)SCC3)cc1, the IC50 was > 80 µM (inactive).
For CC(C)[C@H](N)c1nnc(SCC(=O)c2ccc(Cl)cc2)o1, the IC50 was > 80 µM (inactive).
In the case of CCN(CC(=O)Nc1c(F)cccc1F)C(=O)c1cc(S(=O)(=O)N(CC)CC)ccc1N1CCCCC1, the IC50 was > 80 µM (inactive).
With Cc1cc(-c2cc(C(=O)NCc3ccccc3)on2)nc(S(C)(=O)=O)n1 the pIC50 was 5.41.
In the case of CC1=CC(C)(C)Nc2ccc(OC(=O)CN3C(=O)CCC3=O)cc21, the pIC50 was 5.81.
In the case of C=CCOC(=O)COc1cc(C)cc2oc(=O)c3c(c12)CCC3, the IC50 was > 80 µM (inactive).
In the case of N=c1ccn(Cc2c(Cl)cccc2Cl)cc1, the IC50 was > 80 µM (inactive).
For Cc1ccc2nc(NC(=O)CSCC(=O)OCC(=O)c3ccc(Br)cc3)sc2c1, the pIC50 was 6.48.
For CCC(=O)N1c2ccccc2[C@@H](N(C(C)=O)c2ccccc2)C[C@H]1C, the IC50 was 57 µM (inactive).
In the case of COc1cc(-c2nc3ccc(N4CCN(C)CC4)cc3[nH]2)cc(OC)c1OC, the IC50 was > 80 µM (inactive).
O=C(Nc1ccccc1C(=O)Nc1nnc(C(F)(F)F)s1)c1ccccc1 was tested, and the IC50 was > 80 µM (inactive).
With COc1ccccc1/C=C1\SC(=S)N(CCC(=O)Nc2cccc(O)c2)C1=O the IC50 was > 80 µM (inactive).
With CCCS(=O)(=O)Nc1cccc(-c2ccc3nnc(C)n3n2)c1 the IC50 was > 80 µM (inactive).
O=C(O)CCSc1ncnc2sc(-c3ccccc3)cc12 showed a pIC50 of 5.97.
For COC(=O)c1c(-c2ccc(N(C)C)cc2)sc2ccc(OC)cc12, the IC50 was > 80 µM (inactive).
COc1ccc2nc(C)cc(Sc3nc4ccccc4s3)c2c1 gave a pIC50 of 5.60.
CC(C)(C)c1ccc(-n2ncc3c2CCCC3NC(=O)C2(C(N)=O)CC2)cc1 (centres undefined) was tested, and the IC50 was > 80 µM (inactive).
With Cc1cc(C)c(CN2CCN(C(=O)Cn3cnc4c(NCc5ccccc5)ncnc43)CC2)c(C)c1 the IC50 was 69.9 µM (inactive).
For CCOC(=O)c1sc(NC(=O)c2cc(-c3ccccc3C)nc3ccccc23)c(C#N)c1C, the IC50 was > 80 µM (inactive).
Work on COCCCNC(=O)COc1ccc(-c2nccc(-c3ccccn3)n2)cc1 yielded a pIC50 of 5.06.
CCOc1ccc(-c2cc(CCCC(=O)NCCCOC)no2)cc1 was tested, and the IC50 was > 80 µM (inactive).
With CCn1c(=O)cc(SCC(=O)N2CCN(C(=O)c3ccco3)CC2)c2ccccc21 the IC50 was > 80 µM (inactive).
Cc1ccc(/C=C2\SC(=S)N(CCCC(=O)Nc3cccnc3)C2=O)cc1 was tested, and the pIC50 was 5.21.
In the case of CCN1C(=O)c2cccc3c(S(=O)(=O)Nc4ccccc4)ccc1c23, the IC50 was 48.9 µM (inactive).
For NC(=S)N=Nc1c(O)n(Cc2ccccc2)c2ccccc12, the IC50 was 23.9 µM (inactive).
For Cc1ccc(C(=O)OCC(=O)N(CC(C)C)c2c(N)n(Cc3ccccc3)c(=O)[nH]c2=O)o1, the IC50 was > 80 µM (inactive).
For C=CCOc1ccc(/C=C2\SC(=S)N(CCC(=O)O)C2=O)cc1, the pIC50 was > 6.80.
In the case of CC1CCN(c2c(NCc3ccc(C(=O)N4c5ccccc5CC4C)cc3)c(=O)c2=O)CC1 (centres undefined), the IC50 was > 80 µM (inactive).
With NC(=O)C1CCN(C(=O)COc2ccc3ccccc3c2Br)CC1 the IC50 was > 80 µM (inactive).
In the case of O=C(Nc1cccc(Br)c1)c1ccc2c(c1)SC1=NS(=O)(=O)CCN12, the IC50 was > 80 µM (inactive).
COc1ccc(-n2c(-c3ccc(Cl)cc3)c[n+]3c2CCc2ccccc2-3)cc1 was tested, and the IC50 was 28.6 µM (inactive).
Cc1c(CCC(=O)N2CCC(C(=O)O)CC2)c(=O)oc2cc3oc4c(c3cc12)CCCC4 was tested, and the IC50 was > 80 µM (inactive).
O=C(CCCN1C(=O)/C(=C/c2ccccc2Cl)SC1=S)Nc1cccnc1 gave a pIC50 of 5.18.
CC1=CC(C)(C)Nc2ccc(OC(=O)C(C)N3C(=O)c4ccccc4C3=O)cc21 (centres undefined) showed a pIC50 of 5.92.
With COCCCn1c(=O)/c(=C\c2cccc(OC)c2OC)s/c1=C(/C#N)C(=O)Nc1ccc(C(=O)O)cc1 the IC50 was > 80 µM (inactive).
With Cn1c(=O)n(C)c2cc(NS(=O)(=O)c3ccccc3)ccc21 the IC50 was 51.8 µM (inactive).
CC1CCC/C=C/C2CC(O)CC2C(O)/C=C/C(=O)O1 (centres undefined) was tested, and the IC50 was > 80 µM (inactive).
In the case of Cc1nc2cc(-c3cccc(F)c3)nn2c(C)c1CCC(=O)N1CCC2(CC1)OCCO2, the IC50 was 20.7 µM (inactive).
With C=CCOc1ccccc1CN(C(=O)CCl)c1ccc2c(c1)OCO2 the pIC50 was 5.77.
COc1ccc(/C=C2\SC(=S)N(CCCC(=O)Nc3ccc(O)cc3)C2=O)cc1 was tested, and the IC50 was > 80 µM (inactive).
CCc1ccc(/C=C2\SC(=S)N(CCC(=O)Nc3cc(C)on3)C2=O)cc1 showed a pIC50 of 5.39.
In the case of Cc1ccc(-c2nsc3c(N4CCC(C(N)=O)CC4)ncnc23)cc1, the IC50 was 78.1 µM (inactive).
For O=C(c1cc2nc(-c3ccccc3)cc(-c3ccccc3)n2n1)N1CCN(C(=O)c2ccco2)CC1, the IC50 was 31 µM (inactive).
CC1CCN(C(=O)CCCOc2cc(=O)n(C)c3ccccc23)CC1 was tested, and the IC50 was > 80 µM (inactive).
For CC1CC(C)CN(S(=O)(=O)c2ccc(C(=O)NCCCn3ccnc3)cc2)C1 (centres undefined), the IC50 was 54.6 µM (inactive).
Work on CCOC(=O)Cc1csc(NC(=S)NC(=O)c2ccc(C)cc2)n1 yielded a pIC50 of 6.14.
CCOc1ccc(-c2nnc(SCC(=O)Nc3cc(C)on3)o2)cc1 gave a pIC50 of 5.82.
Cc1nc2cc(-c3ccc(Cl)cc3)nn2c(C)c1CCC(=O)NC(C)c1ccc2c(c1)OCCO2 (centres undefined) showed a pIC50 of 6.15.
For CN1C(=O)CSc2ccc(NC(=O)N3CCN(c4ccccc4)CC3)cc21, the IC50 was > 80 µM (inactive).
With CCc1ccc(/C=C2\SC(=S)N(CCCC(=O)Nc3ccccn3)C2=O)cc1 the pIC50 was 5.80.
With COc1cc(/C=N/Nc2nc(Nc3ccccc3)nc(N3CCOCC3)n2)ccc1OC(=O)c1ccco1 the IC50 was > 80 µM (inactive).
In the case of CCN1CCN(C(=O)CSc2cc(=O)n(CC)c3ccccc23)CC1, the IC50 was > 80 µM (inactive).
CC(C)C[C@@H](N)c1nnc(SCC(=O)c2ccc(Cl)cc2)o1 was tested, and the pIC50 was 4.95.
COc1ccc(/C=N\NC(=O)c2sccc2C)cc1Cn1nc(C)cc1C was tested, and the IC50 was > 80 µM (inactive).
In the case of CCN(CC)CCOC(=O)c1ccc(NC(=O)COc2cc(=O)n(CC)c3ccccc23)cc1, the IC50 was 43.8 µM (inactive).
In the case of O=C(C1CCC1)N1CCN(S(=O)(=O)c2ccc([N+](=O)[O-])cc2)CC1, the IC50 was > 80 µM (inactive).
For COc1cc(/C(C)=N\NC(N)=S)cc(OC)c1OC, the IC50 was 72.5 µM (inactive).
In the case of COc1ccc(NC(=O)c2cc3c(Cl)nc4ccccc4c3s2)cc1OC, the IC50 was 61.9 µM (inactive).
For Cc1csc(NC(=O)CCc2c(C)nc3cc(-c4ccc(Cl)cc4)nn3c2C)n1, the pIC50 was 6.44.
With Cc1ccc(Nc2nc(N/N=C\c3ccc4c(c3)OCO4)nc(N3CCOCC3)n2)cc1 the IC50 was 70.3 µM (inactive).
Work on OCCN1CCN(C(=S)c2ccc(-c3ccccc3)cc2)CC1 yielded a pIC50 of 5.15.
Cc1cc(N(C)C)ccc1N=Nc1ccc(N)cc1 was tested, and the IC50 was > 80 µM (inactive).
In the case of Cc1ccc(Sc2cc(NCCCO)c([N+](=O)[O-])c3nonc23)cc1, the IC50 was > 80 µM (inactive).
With Cc1ccc(CSc2nnc(SCC(=O)N/N=C/C=C/c3ccccc3[N+](=O)[O-])s2)cc1 the IC50 was 67 µM (inactive).
In the case of Cc1cccn2c(=O)c3cc(C(=O)NC4CCCCC4)c(=N)n(CCN4CCOCC4)c3nc12, the IC50 was > 80 µM (inactive).
For COc1ccc(C(=O)Nc2ccc(OC)c([N+](=O)[O-])c2)cc1Br, the IC50 was > 80 µM (inactive).
For Cc1c(CCO)c(=O)oc2n[nH]c(-c3ccccc3)c12, the IC50 was > 80 µM (inactive).
For CCc1ccc(/C=C2/SC(=S)N(CCC(=O)Nc3cccnc3)C2=O)cc1, the IC50 was > 80 µM (inactive).
Work on CC1CC(C)(C)Nc2ccc(OC(=O)c3ccco3)cc21 (centres undefined) yielded a pIC50 of 5.50.
Work on COc1cc(OC)cc(-c2cc3nc(C)c(CCC(=O)NCc4ccccc4)c(C)n3n2)c1 yielded a pIC50 of 5.56.
Cc1ccc(C(=O)CSc2nnc(COc3cc(C)cc(C)c3)o2)cc1 was tested, and the IC50 was > 80 µM (inactive).
With CCc1ccc2nc(Nc3nc(COC)cc(=O)[nH]3)nc(C)c2c1 the IC50 was > 80 µM (inactive).
c1ccc(CCNc2ncnc3ccccc23)cc1 was tested, and the IC50 was 64.2 µM (inactive).
For CCOc1ccc(-n2c(-c3ccccc3)c[n+]3c2CCCCC3)cc1, the IC50 was > 80 µM (inactive).
Cc1cc(NC(=O)CCCN2C(=O)/C(=C/c3ccccc3Cl)SC2=S)no1 was tested, and the IC50 was 20.4 µM (inactive).
C(=N\Nc1nc(Nc2ccccc2)nc(N2CCOCC2)n1)/c1c[nH]c2ccccc12 was tested, and the IC50 was 37.7 µM (inactive).
With Cn1c(=O)c2c(SCC(=O)Nc3ccccc3F)nc(-c3ccccc3F)nc2n(C)c1=O the IC50 was > 80 µM (inactive).
For CC(=O)c1cn(CCOc2cc(C)ccc2C)c2ccccc12, the IC50 was > 80 µM (inactive).
Work on Nc1ccc(-c2cc3ccccc3oc2=O)cc1 yielded a pIC50 of 6.62.
With Cn1c(=O)cc(OCCCC(=O)N2CCCCC2)c2ccccc21 the IC50 was > 80 µM (inactive).
CCOc1ccc(-c2nnc(SCC(=O)NC3CC3)o2)cc1 was tested, and the IC50 was 54.2 µM (inactive).
COc1cccc(Cn2nnc(C(=O)Nc3cc(Cl)ccc3OC)c2N)c1 was tested, and the IC50 was > 80 µM (inactive).
